Results taken from patent US20240316047A1, “INHIBITORS OF RNA HELICASE DHX9 AND USES THEREOF” (ACCENT THERAPEUTICS, INC., priority 2022, published 2024).

Target: Human recombinant DHX9 protein (Homo sapiens (Human), UniProt Q08211)
Assay: DHX9 ATPase assay (ADP-Glo)
Type: biochemical
Conditions: for IC50: read-out: DHX9 Biochemical Inflection Point

Chain of Human recombinant DHX9 protein (Q08211 whole entry): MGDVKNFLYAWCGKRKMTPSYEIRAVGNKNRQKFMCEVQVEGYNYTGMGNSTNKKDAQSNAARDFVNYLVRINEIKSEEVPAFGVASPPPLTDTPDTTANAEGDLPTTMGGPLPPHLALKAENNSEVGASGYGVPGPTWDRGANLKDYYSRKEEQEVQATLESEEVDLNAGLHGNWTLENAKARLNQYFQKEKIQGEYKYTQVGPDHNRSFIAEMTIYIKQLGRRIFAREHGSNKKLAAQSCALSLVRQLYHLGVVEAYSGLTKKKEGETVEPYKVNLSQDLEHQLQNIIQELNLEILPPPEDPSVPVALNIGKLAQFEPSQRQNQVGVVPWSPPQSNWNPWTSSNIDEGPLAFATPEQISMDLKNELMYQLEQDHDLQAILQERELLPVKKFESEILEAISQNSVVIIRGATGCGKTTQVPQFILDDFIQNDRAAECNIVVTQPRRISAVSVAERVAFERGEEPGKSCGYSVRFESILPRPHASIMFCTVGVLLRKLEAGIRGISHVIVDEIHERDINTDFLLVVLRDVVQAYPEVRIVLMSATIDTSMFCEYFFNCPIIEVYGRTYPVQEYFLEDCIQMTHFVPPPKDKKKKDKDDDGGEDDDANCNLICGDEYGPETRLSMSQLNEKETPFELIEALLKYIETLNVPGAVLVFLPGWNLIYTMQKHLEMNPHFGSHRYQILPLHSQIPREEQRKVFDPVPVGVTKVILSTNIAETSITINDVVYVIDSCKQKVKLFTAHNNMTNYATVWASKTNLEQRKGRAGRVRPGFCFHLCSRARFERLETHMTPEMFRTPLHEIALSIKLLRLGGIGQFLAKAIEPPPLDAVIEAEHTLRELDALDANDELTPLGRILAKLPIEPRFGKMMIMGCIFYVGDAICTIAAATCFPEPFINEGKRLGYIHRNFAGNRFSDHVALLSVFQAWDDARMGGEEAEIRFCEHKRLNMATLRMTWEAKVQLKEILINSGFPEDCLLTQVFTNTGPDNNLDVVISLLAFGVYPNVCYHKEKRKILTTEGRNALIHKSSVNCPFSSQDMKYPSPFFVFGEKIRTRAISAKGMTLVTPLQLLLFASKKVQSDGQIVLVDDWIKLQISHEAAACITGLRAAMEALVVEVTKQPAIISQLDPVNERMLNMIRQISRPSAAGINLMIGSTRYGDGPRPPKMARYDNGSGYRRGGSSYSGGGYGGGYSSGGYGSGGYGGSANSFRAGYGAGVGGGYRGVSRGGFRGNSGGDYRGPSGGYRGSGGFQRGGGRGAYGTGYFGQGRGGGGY

SMILES	DHX9 Biochemical Max Inhibition	IC50
CCn1nc(C(=O)Nc2cc(F)cc(NS(C)(=O)=O)c2)cc1C [Example 119, 1-ethyl-N-(3-fluoro-5-(methylsulfonamido)phenyl)-5-methyl-1H-pyrazole-3-carboxamide]	82.1%	1160 nM
CS(=O)(=O)Nc1cc(Cl)cc(NC(=O)c2cc(-c3ccccc3)c(CO)s2)c1 [Example 120, N-(3-chloro-5-(methylsulfonamido)phenyl)-5-(hydroxymethyl)-4-phenylthiophene-2-carboxamide]	72.5%	8.9 nM
CS(=N)(=O)Nc1cc(Br)cc(NC(=O)c2cc(-c3ccccn3)cs2)c1 (stereo not shown) [Example 121, N-(3-bromo-5-(methylsulfonoamidimidamido)phenyl)-4-(pyridin-2-yl)thiophene-2-carboxamide]	63.5%	40.6 nM
Cc1cccnc1-c1csc(C(=O)Nc2cc(Br)cc(NS(C)(=N)=O)c2)c1 (stereo not shown) [Example 122]	67.7%	28.8 nM
Cc1sc(C(=O)Nc2cc(Br)cc(NS(C)(=N)=O)c2)cc1-c1ccccn1 (stereo not shown) [Example 123]	72.8%	14.8 nM
CS(=O)(=O)Nc1cc(Cl)cc(NC(=O)c2csc(-c3ccccc3)c2)c1 [Example 124, N-(3-chloro-5-(methylsulfonamido)phenyl)-5-phenylthiophene-3-carboxamide]	53.8%	604 nM
CS(=O)(=O)Nc1cc(Cl)cc(NC(=O)c2coc(-c3ccccc3)c2)c1 [Example 125]	56.7%	330 nM
CS(=O)(=O)Nc1cc(Cl)cc(NC(=O)c2cnn(CCCO)c2)c1 [Example 126, N-(3-chloro-5-(methylsulfonamido)phenyl)-1-(3-hydroxypropyl)-1H-pyrazole-4-carboxamide]	64.5%	182 nM
CS(=O)(=O)Nc1cc(Cl)cc(NC(=O)c2cnn(CCO)c2)c1 [Example 127]	66.4%	138 nM
CS(=O)(=O)Nc1cc(Cl)cc(NC(=O)c2cnn(C3CC4(COC4)C3)c2)c1 [Example 128]	57.3%	173 nM
Cc1cc(C(=O)Nc2cc(Cl)cc(NS(C)(=O)=O)c2)cn1-c1ccccc1 [Example 129, N-(3-chloro-5-(methylsulfonamido)phenyl)-5-methyl-1-phenyl-1H-pyrrole-3-carboxamide]	66.4%	–
Cc1cccnc1-n1cc(C(=O)Nc2cc(Cl)cc(NS(C)(=O)=O)c2)cc1C [Example 130]	70.4%	39.6 nM
CS(=O)(=O)Nc1cc(Cl)cc(NC(=O)c2cnn(C3CCOCC3)c2)c1 [Example 131, N-(3-chloro-5-(methylsulfonamido)phenyl)-1-(tetrahydro-2H-pyran-4-yl)-1H-pyrazole-4-carboxamide]	55.9%	151 nM
CCc1cn2cc(C(=O)Nc3cc(Cl)cc(NS(C)(=O)=O)c3)ccc2n1 [Example 132]	55.1%	295 nM
CCc1nc2ccc(C(=O)Nc3cc(Cl)cc(NS(C)(=O)=O)c3)cn2c1N(C)C [Example 133]	41.8%	13600 nM
CS(=O)(=O)Nc1cc(Cl)cc(NC(=O)c2ccc3nccn3c2)c1 [Example 134]	40%	808 nM
Cn1nc(C(=O)Nc2cc(Cl)cc(NS(C)(=O)=O)c2)cc1-c1ccccc1OCc1ccccc1 [Example 138, 5-(2-(benzyloxy)phenyl)-N-(3-chloro-5-(methylsulfonamido)phenyl)-1-methyl-1H-pyrazole-3-carboxamide]	42.6%	13500 nM
CC(c1ccccc1)n1cc(C(=O)Nc2cc(Cl)cc(NS(C)(=O)=O)c2)cn1 (stereo not shown) [Example 142, N-(3-chloro-5-(methylsulfonamido)phenyl)-1-(1-phenylethyl)-1H-pyrazole-4-carboxamide]	62%	514 nM
CC(C)(C)OC(=O)N1CC2(CC(n3cc(C(=O)Nc4cc(Cl)cc(NS(C)(=O)=O)c4)cn3)C2)C1 [Example 144, tert-butyl 6-(4-((3-chloro-5-(methylsulfonamido)phenyl)carbamoyl)-1H-pyrazol-1-yl)-2-azaspiro[3.3]heptane-2-carboxylate]	65.1%	224 nM

Now from value to molecule:

DHX9 Biochemical Max Inhibition	IC50	SMILES
44.6%	1070 nM	CS(=O)(=O)Nc1cc(Cl)cc(NC(=O)c2cccc3ccoc23)c1 [Example 135]
59.6%	–	CC(C)(C)OC(=O)N1CCC(n2cc(C(=O)Nc3cc(Cl)cc(NS(C)(=O)=O)c3)cn2)CC1 [Example 136]
59.1%	6650 nM	Cn1nc(-c2ccccc2OCc2ccccc2)cc1C(=O)Nc1cc(Cl)cc(NS(C)(=O)=O)c1 [Example 139]
63.3%	300 nM	Cn1nc(C(=O)Nc2cc(Cl)cc(NS(C)(=O)=O)c2)cc1-c1ccccn1 [Example 140]
54.9%	442 nM	Cn1nc(-c2ccccn2)cc1C(=O)Nc1cc(Cl)cc(NS(C)(=O)=O)c1 [Example 141]
66.8%	–	Cc1cccnc1-c1cc(C(=O)Nc2cc(Cl)cc(NS(C)(=O)=O)c2)cn1CC(F)F [Example 143, N-(3-chloro-5-(methylsulfonamido)phenyl)-1-(2,2-difluoroethyl)-5-(3-methylpyridin-2-yl)-1H-pyrrole-3-carboxamide]
67.9%	58 nM	CS(=O)(=O)Nc1cc(Cl)cc(NC(=O)c2cnn(C3CCNCC3)c2)c1 [Example 145, N-(3-chloro-5-(methylsulfonamido)phenyl)-1-(piperidin-4-yl)-1H-pyrazole-4-carboxamide]
71.9%	30.4 nM	CS(=O)(=O)Nc1cc(Cl)cc(NC(=O)c2cnn(C3CC4(CNC4)C3)c2)c1 [Example 146]
76.5%	6.3 nM	CS(=O)(=O)Nc1cc(Cl)cc(NC(=O)c2cnn(-c3cc(N4CCNCC4)ccn3)c2)c1 [Example 147]
63.3%	18.5 nM	CC(=O)N1CCN(c2ccnc(-n3cc(C(=O)Nc4cc(Cl)cc(NS(C)(=O)=O)c4)cn3)c2)CC1 [Example 148, 1-(4-(4-acetylpiperazin-1-yl)pyridin-2-yl)-N-(3-chloro-5-(methylsulfonamido)phenyl)-1H-pyrazole-4-carboxamide]
65.4%	19.9 nM	CC(C)C(=O)N1CCN(c2ccc(-n3cc(C(=O)Nc4cc(Cl)cc(NS(C)(=O)=O)c4)cn3)nc2)CC1 [Example 149, N-(3-chloro-5-(methylsulfonamido)phenyl)-1-(5-(4-isobutyrylpiperazin-1-yl)pyridin-2-yl)-1H-pyrazole-4-carboxamide]
66.4%	126 nM	Cn1cc(C(=O)Nc2cc(Cl)cc(NS(C)(=O)=O)c2)nc1-c1ccccc1 [Example 155, N-(3-chloro-5-(methylsulfonamido)phenyl)-1-methyl-2-phenyl-1H-imidazole-4-carboxamide]
51.2%	695 nM	Cc1cccnc1-c1nc(C(=O)Nc2cc(Cl)cc(NS(C)(=O)=O)c2)cn1C [Example 156]
